Results published in article PMC5484788, “Development of a common carp (Cyprinus carpio) pregnane X receptor (cPXR) transactivation reporter assay and its activation by azole fungicides and pharmaceutical chemicals” (Toxicology in Vitro, 2017).
Read-outs that look alike come from different tables or passages of the source. One block for each compound: values may come before it.

Key:
[1] = biological target: T1, hPXR (Homo sapiens, UniProt O75469); assay: human PXR (hPXR) luciferase transactivation reporter assay, pGL4.24-6xPXRE reporter, COS-7 cells; conditions: for maximal effect (Emax) hPXR, times that of the control: COS-7 cells, 44 h, relative to DMSO control
T1 sequence (O75469 1-473 isoform O75469-7): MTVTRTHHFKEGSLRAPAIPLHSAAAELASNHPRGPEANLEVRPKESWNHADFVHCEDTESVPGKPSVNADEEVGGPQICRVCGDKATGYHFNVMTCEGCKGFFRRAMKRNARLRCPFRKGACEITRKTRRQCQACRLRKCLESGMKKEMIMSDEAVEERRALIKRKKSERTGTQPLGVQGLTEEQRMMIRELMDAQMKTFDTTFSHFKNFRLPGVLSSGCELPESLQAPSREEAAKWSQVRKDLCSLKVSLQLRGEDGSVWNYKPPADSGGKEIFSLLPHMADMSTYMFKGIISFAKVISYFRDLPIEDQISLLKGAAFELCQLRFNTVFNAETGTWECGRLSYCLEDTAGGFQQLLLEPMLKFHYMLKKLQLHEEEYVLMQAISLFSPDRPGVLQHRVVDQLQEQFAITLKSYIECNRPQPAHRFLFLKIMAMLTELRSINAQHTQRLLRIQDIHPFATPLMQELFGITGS
Experimental: Human PXR (hPXR) clone cDNA was purchased from Promega. […] The following PCR protocol was employed: 21 cycles of denaturation at 98 °C for 10 s, annealing at 60 °C for 5 s and elongation at 72 °C for 15 s. The purified product was then ligated into the eukaryotic expression vector pcDNA3.1(+) (Invitrogen) using the correspondent restriction enzymes and T4 DNA ligase (Promega).
(§1) A reporter vector was constructed based on several variations of the PXR response element (PXRE; Fig. 1). The PXRE occurs either as a direct or everted repeat of the consensus motif […], spaced by between 3 and 8 nucleotides. The PXRE sequence created here was based on that reported in [Xie et al. (2000)]. […] To maximise reporter efficiency, a further PXRE motif was added either side of the previously generated long chain oligo using PCR. […] The following PCR conditions were employed: 21 cycles of denaturation at 98 °C for 10 s, annealing at 60 °C for 5 s and elongation at 72 °C for 30 s. After purification, and using the appropriate restriction enzymes KpnI and HindIII, the obtained fragment was subsequently ligated into the pGL4.24[luc2P/minP] vector (Promega) which contains the firefly (Photinus pyralis) luciferase (luc2P) gene, to create the pGL4.24-6xPXRE reporter construct.
(§2) The cells were maintained at subconfluent densities and sub-cultured when reaching 80% confluency.
(§3) For transfection assays, cells were seeded in 24-well plates at 5 × 10^4 cells well^− 1 in phenol-red free DMEM (supplemented with 10% charcoal/dextran-treated foetal bovine serum (Hyclone). After 24 h, the cells were transiently transfected with 200 ng of either pcDNA3.1(+)/cPXR or pcDNA3.1(+)/hPXR, 400 ng of reporter construct (either MMTV/luc2/pGL4 (Promega) or pGL4.24-6xPXRE) and 100 ng of pRL-TK (driving the Renilla reniformis luciferase gene as an internal control to normalise for variations in transfection efficiency) using Fugene HD transfection reagent (Promega) in serum-free medium according to the manufacturer's protocol. Four hours after transfection, cells were treated with PXR agonists (see below). Forty-eight hours after transfection, cells were lysed and the luciferase activities of the cells were measured by a chemiluminescence assay with Dual-Luciferase Reporter Assay System (Promega) according to the manufacturer's instructions. Luminescence was measured using an Infinite 200 Pro plate reader (Tecan, Grödig, Austria). Promoter activity was calculated as firefly (Photinus pyralis)-luciferase activity/sea pansy (R. reniformis)-luciferase activity. All transfections were done at least three times, employing triplicate sample points in each experiment.
(§4) In addition to the pGL4.24-6xPXRE reporter construct, a commercially available MMTV/luc2/pGL4 reporter vector (Promega) was tested as a reporter plasmid (i.e. for PXRE function), as it is known to contain various nuclear receptor response elements in the promoter region.

[2] = biological target: cPXR (Cyprinus carpio, UniProt A0A1P8P0E9); assay: carp PXR (cPXR) luciferase transactivation reporter assay, pGL4.24-6xPXRE reporter, COS-7 cells; conditions: for transactivation of cPXR (result in words): concentration-response 10^-11 to 10^-5 M, pGL4.24-6xPXRE reporter
cPXR, sequence (A0A1P8P0E9 entry or part of it): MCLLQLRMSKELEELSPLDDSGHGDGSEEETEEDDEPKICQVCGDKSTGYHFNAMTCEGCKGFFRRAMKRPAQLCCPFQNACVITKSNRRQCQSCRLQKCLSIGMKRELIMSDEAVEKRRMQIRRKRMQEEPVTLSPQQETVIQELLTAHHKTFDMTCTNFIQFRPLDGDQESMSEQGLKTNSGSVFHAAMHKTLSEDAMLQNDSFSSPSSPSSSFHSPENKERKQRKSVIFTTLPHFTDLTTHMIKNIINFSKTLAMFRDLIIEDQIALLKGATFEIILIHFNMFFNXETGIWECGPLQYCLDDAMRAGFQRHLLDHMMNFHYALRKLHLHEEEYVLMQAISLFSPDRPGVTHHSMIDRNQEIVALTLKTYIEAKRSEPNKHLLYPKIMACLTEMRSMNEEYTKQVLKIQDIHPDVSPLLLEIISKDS
Experimental: For this, cDNA was reverse transcribed from 1 μg of carp liver total RNA as described above and amplified using the Advantage 2 DNA polymerase mix (Clontech) according to the manufacturer's instructions. The resulting PCR product was purified and sequenced to confirm the full sequence length and sub-cloned into pGEM-T Easy vector (Promega) following the manufacturer's recommendations. Plasmid DNA was isolated using the Wizard Plus SV minipreps DNA Purification system (Promega) according to manufacturer's instructions. Using the BamHI and EcoRV sites, the cPXR sequences was subsequently ligated into the eukaryotic expression vector pcDNA3.1(+) (Invitrogen) using the correspondent restriction enzymes (New England Biolabs, Hitchin, UK) and T4 DNA ligase (Promega).
as §1, §2, §3, §4

[3] = system: zebrafish PXR; conditions: ref Bainy et al., 2013, cited from earlier work
[4] = system: FHM PXR; parameters: method as in Milnes et al., 2008; conditions: exposure to 50 μM; ref Milnes et al., 2008; cited from earlier work
[5] = system: PXR from the pufferfish; conditions: 50 μM; ref Milnes et al., 2008; cited from earlier work
[6] = system: COS-7 cells; assay: toxicity to COS-7 cells in the transactivation assays (inhibited cell growth); assay type: cell-based; conditions: 100 μM, in both cPXR and hPXR assays
[7] = concentration-response 10^-11 to 10^-5 M, pGL4.24-6xPXRE reporter

Structure (SMILES): CC(C)NCC(O)COc1ccc(CC(N)=O)cc1 (stereo not shown) [ATN, atenolol]
- transactivation of hPXR (result in words) [1, 7]: did not induce transactivation
- transactivation of cPXR (result in words) [2]: did not induce transactivation

Structure (SMILES): CC(C)(Oc1ccc(Cl)cc1)C(=O)O [CFA, clofibric acid]
- transactivation of hPXR (result in words) [1, 7]: did not induce transactivation
- transactivation of cPXR (result in words) [2]: did not induce transactivation

- EC50 [1]: 880 nM
- maximal effect (Emax) hPXR, times that of the control ([1]; pGL4.24-6xPXRE reporter): 4.8 x-fold
Structure (SMILES): Clc1ccccc1C(c1ccccc1)(c1ccccc1)n1ccnc1 [CTZ, clotrimazole]
- zebrafish PXR up-regulation above controls ([3]; exposure concentrations between 0.5 and 50 μM, Milnes et al., 2008, Moore et al., 2000): 8 fold
- lower activation of zebrafish full-length PXR compared with zebrafish PXR-LBD construct [3]: 90%
- FHM PXR up-regulation [4]: up to 35 times

Structure (SMILES): O=C(O)Cc1ccccc1Nc1c(Cl)cccc1Cl [DIC, diclofenac]
- transactivation of hPXR (result in words) [1]: did not induce transactivation
- transactivation of cPXR (result in words) [2]: did not induce transactivation

Structure (SMILES): C#C[C@]1(O)CC[C@H]2[C@@H]3CCc4cc(O)ccc4[C@H]3CC[C@@]21C [EE2, 17α-ethinyloestradiol]
- concentration at which transactivation of hPXR was induced [1]: 10 µM
- transactivation of hPXR (result in words) [1]: activate hPXR
- transactivation of cPXR (result in words) [2]: activated
- concentration at which transactivation of cPXR was induced ([2]; only concentration giving induction, range 10^-11 to 10^-5 M): 10 µM

Structure (SMILES): Cc1ccc(C)c(OCCCC(C)(C)C(=O)O)c1 [GEM, gemfibrozil]
- transactivation of hPXR (result in words) [1, 7]: did not induce transactivation
- transactivation of cPXR (result in words) [2]: did not induce transactivation

Structure (SMILES): CC(C)Cc1ccc(C(C)C(=O)O)cc1 (stereo not shown) [IBU, ibuprofen]
- transactivation of cPXR (result in words) [2]: did not induce transactivation

Structure (SMILES): CC(=O)N1CCN(c2ccc(OCC3COC(Cn4ccnc4)(c4ccc(Cl)cc4Cl)O3)cc2)CC1 (stereo not shown) [KTZ, ketoconazole]
- transactivation of hPXR (result in words) [1, 7]: had no effect
- transactivation of cPXR (result in words) [2]: had no effect

- transactivation of hPXR (result in words) [1, 7]: induced transactivational activity
Structure (SMILES): Clc1ccc(COC(Cn2ccnc2)c2ccc(Cl)cc2Cl)c(Cl)c1 (stereo not shown) [MCZ, miconazole]

Structure (SMILES): CCCC1COC(Cn2cncn2)(c2ccc(Cl)cc2Cl)O1 (stereo not shown) [PCZ, propiconazole]
- transactivation of hPXR (result in words) [1, 7]: induced transactivational activity
- EC50 [2]: 213 nM
- transactivation of cPXR (result in words) [2]: induced transactivational activity

- EC50 [1]: 44 nM
Structure (SMILES): CC(C)NCC(O)COc1cccc2ccccc12 (stereo not shown) [Propranolol, propranolol]

Structure (SMILES): CO[C@H]1/C=C/O[C@@]2(C)Oc3c(C)c(O)c4c(O)c(c(/C=N/N5CCN(C)CC5)c(O)c4c3C2=O)NC(=O)/C(C)=C\C=C\[C@H](C)[C@H](O)[C@@H](C)[C@@H](O)[C@@H](C)[C@H](OC(C)=O)[C@@H]1C [RIF, rifampicin]
- activation of hPXR compared with control, single concentration ([1]; 1 μM (10^-6 M), pGL4.24-6xPXRE reporter, reporter plasmid comparison): significant activation
- maximal effect (Emax) hPXR, times that of the control ([1]; pGL4.24-6xPXRE reporter): 6.4 x-fold
- transactivation of cPXR (result in words) [2]: not activated
- activation of pufferfish PXR [5]: activate

Structure (SMILES): CC/C(=C(\c1ccccc1)c1ccc(OCCN(C)C)cc1)c1ccccc1 [TAM, tamoxifen]
- transactivation of cPXR (result in words) [2]: had no effect
- toxicity to COS-7 cells (inhibited cell growth) [6]: toxic
